In ChEMBL document CHEMBL4196087 (Eur J Med Chem, 2018):
Values after ≈ are worked out from the molar mass of the structure shown.

Columns and labels:
Format in all cases: functional
Pseudomonas aeruginosa [1] = assay: Antibacterial activity against Pseudomonas aeruginosa at 37 degC measured after 24 hrs by agar disc diffusion method
Staphylococcus aureus = assay: Antibacterial activity against Staphylococcus aureus at 37 degC measured after 24 hrs by agar disc diffusion method
Bacillus subtilis [2] = assay: Antibacterial activity against Bacillus subtilis at 37 degC measured after 24 hrs by agar disc diffusion method
Escherichia coli = assay: Antibacterial activity against Escherichia coli at 37 degC measured after 24 hrs by agar disc diffusion method
Pseudomonas aeruginosa [3] = assay: Antibacterial activity against Pseudomonas aeruginosa at 37 degC measured after 24 hrs by CLSI M7-A4 protocol based method
Bacillus subtilis [4] = assay: Antibacterial activity against Bacillus subtilis at 37 degC measured after 24 hrs by CLSI M7-A4 protocol based method
MCF7 = assay: Growth inhibition of human MCF7 cells at 10^-5 M incubated for 48 hrs by sulforhodamine B assay relative to control; conditions: MCF7, 48 h, read-out: GI
K562 = assay: Growth inhibition of human K562 cells at 10^-5 M incubated for 48 hrs by sulforhodamine B assay relative to control; conditions: K562, 48 h, read-out: GI
NCI-H226 = assay: Growth inhibition of human NCI-H226 cells at 10^-5 M incubated for 48 hrs by sulforhodamine B assay relative to control; conditions: NCI-H226, 48 h, read-out: GI
MDA-MB-231 = assay: Growth inhibition of human MDA-MB-231 cells at 10^-5 M incubated for 48 hrs by sulforhodamine B assay relative to control; conditions: MDA-MB-231, 48 h, read-out: GI
IGROV-1 = assay: Growth inhibition of human IGROV1 cells at 10^-5 M incubated for 48 hrs by sulforhodamine B assay relative to control; conditions: IGROV-1, 48 h, read-out: GI
T47D = assay: Growth inhibition of human T47D cells at 10^-5 M incubated for 48 hrs by sulforhodamine B assay relative to control; conditions: read-out: GI
MOLT-4 = assay: Growth inhibition of human MOLT4 cells at 10^-5 M incubated for 48 hrs by sulforhodamine B assay relative to control; conditions: MOLT-4, 48 h, read-out: GI
SNB-75 = assay: Growth inhibition of human SNB75 cells at 10^-5 M incubated for 48 hrs by sulforhodamine B assay relative to control; conditions: SNB-75, 48 h, read-out: GI
HOP-92 = assay: Growth inhibition of human HOP92 cells at 10^-5 M incubated for 48 hrs by sulforhodamine B assay relative to control; conditions: HOP-92, 48 h, read-out: GI
UO-31 = assay: Growth inhibition of human UO31 cells at 10^-5 M incubated for 48 hrs by sulforhodamine B assay relative to control; conditions: UO-31, 48 h, read-out: GI
PC-3 = assay: Growth inhibition of human PC3 cells at 10^-5 M incubated for 48 hrs by sulforhodamine B assay relative to control; conditions: PC-3, 48 h, read-out: GI
HL-60(TB) = assay: Growth inhibition of human HL-60(TB) cells at 10^-5 M incubated for 48 hrs by sulforhodamine B assay relative to control; conditions: HL-60, 48 h, read-out: GI
SK-MEL-5 = assay: Growth inhibition of human SK-MEL-5 cells at 10^-5 M incubated for 48 hrs by sulforhodamine B assay relative to control; conditions: SK-MEL-5, 48 h, read-out: GI
LOX IMVI = assay: Growth inhibition of human LOXIMVI cells at 10^-5 M incubated for 48 hrs by sulforhodamine B assay relative to control; conditions: read-out: GI
SF-539 = assay: Growth inhibition of human SF539 cells at 10^-5 M incubated for 48 hrs by sulforhodamine B assay relative to control; conditions: SF-539, 48 h, read-out: GI
A498 = assay: Growth inhibition of human A498 cells at 10^-5 M incubated for 48 hrs by sulforhodamine B assay relative to control; conditions: A498, 48 h, read-out: GI
MDA-MB-468 = assay: Growth inhibition of human MDA-MB-468 cells at 10^-5 M incubated for 48 hrs by sulforhodamine B assay relative to control; conditions: MDA-MB-468, 48 h, read-out: GI
RPMI-8226 = assay: Growth inhibition of human RPMI8226 cells at 10^-5 M incubated for 48 hrs by sulforhodamine B assay relative to control; conditions: RPMI-8226, 48 h, read-out: GI
HOP-62 = assay: Growth inhibition of human HOP62 cells at 10^-5 M incubated for 48 hrs by sulforhodamine B assay relative to control; conditions: HOP-62, 48 h, read-out: GI
CCRF-CEM = assay: Growth inhibition of human CCRF-CEM cells at 10^-5 M incubated for 48 hrs by sulforhodamine B assay relative to control; conditions: read-out: GI
SK-OV-3 = assay: Growth inhibition of human SKOV3 cells at 10^-5 M incubated for 48 hrs by sulforhodamine B assay relative to control; conditions: SK-OV-3, 48 h, read-out: GI

Structure (SMILES)	diameter of the inhibition zone (DIZ) (Pseudomonas aeruginosa [1])	diameter of the inhibition zone (DIZ) (Staphylococcus aureus)	diameter of the inhibition zone (DIZ) (Bacillus subtilis [2])	diameter of the inhibition zone (DIZ) (Escherichia coli)	MIC (Pseudomonas aeruginosa [3])	MIC (Bacillus subtilis [4])	inhibition of growth at 10 µM (T47D)	inhibition of growth at 10 µM (MOLT-4)	inhibition of growth at 10 µM (HOP-92)	inhibition of growth at 10 µM (UO-31)	inhibition of growth at 10 µM (PC-3)	inhibition of growth at 10 µM (LOX IMVI)	inhibition of growth at 10 µM (HOP-62)	other results
O=C(CN1CCN(c2cc3c(cc2F)c(=O)c(C(=O)O)cn3C2CC2)CC1)N/N=C/c1ccccc1Cl	22 mm	20 mm	22 mm	19 mm	–	–	–	–	–	–	–	–	–	–
O=C(CN1CCN(c2cc3c(cc2F)c(=O)c(C(=O)O)cn3C2CC2)CC1)N/N=C/c1cccnc1	31 mm	30 mm	32 mm	29 mm	58 µg/mL (≈ 118 µM)	60 µg/mL (≈ 122 µM)	–	–	–	–	–	–	–	–
COc1ccc(/C=N/NC(=O)CN2CCN(c3cc4c(cc3F)c(=O)c(C(=O)O)cn4C3CC3)CC2)cc1	27 mm	25 mm	26 mm	24 mm	–	–	< 20%	< 20%	< 20%	< 20%	< 20%	23.2%	< 20%	inhibition of growth at 10 µM (MCF7): < 20%; inhibition of growth at 10 µM (K562): < 20%; inhibition of growth at 10 µM (NCI-H226): < 20%; inhibition of growth at 10 µM (MDA-MB-231): < 20%; inhibition of growth at 10 µM (IGROV-1): < 20%; inhibition of growth at 10 µM (SNB-75): < 20%; inhibition of growth at 10 µM (HL-60(TB)): < 20%; inhibition of growth at 10 µM (SK-MEL-5): < 20%; inhibition of growth at 10 µM (SF-539): < 20%; inhibition of growth at 10 µM (A498): < 20%; inhibition of growth at 10 µM (MDA-MB-468): < 20%; inhibition of growth at 10 µM (RPMI-8226): < 20%; inhibition of growth at 10 µM (CCRF-CEM): < 20%
O=C(CN1CCN(c2cc3c(cc2F)c(=O)c(C(=O)O)cn3C2CC2)CC1)N/N=C/c1ccccc1F	29 mm	26 mm	29 mm	26 mm	–	–	–	–	–	–	–	–	–	–
O=C(O)c1cn(C2CC2)c2cc(N3CCNCC3)c(F)cc2c1=O [CIPROFLOXACIN]	36 mm	31 mm	38 mm	33 mm	–	–	–	–	–	–	–	–	–	–
O=C(CSc1nnc(CN2CCN(c3cc4c(cc3F)c(=O)c(C(=O)O)cn4C3CC3)CC2)o1)c1ccccc1	–	–	–	–	–	–	< 20%	< 20%	< 20%	20.3%	23.9%	25.3%	< 20%	inhibition of growth at 10 µM (SK-OV-3): < 20%
O=C(CN1CCN(c2cc3c(cc2F)c(=O)c(C(=O)O)cn3C2CC2)CC1)N/N=C/c1cccs1	26 mm	23 mm	28 mm	24 mm	72 µg/mL (≈ 145 µM)	82 µg/mL (≈ 165 µM)	< 20%	< 20%	< 20%	< 20%	< 20%	27.7%	< 20%	inhibition of growth at 10 µM (MCF7): < 20%; inhibition of growth at 10 µM (K562): < 20%; inhibition of growth at 10 µM (NCI-H226): < 20%; inhibition of growth at 10 µM (MDA-MB-231): < 20%; inhibition of growth at 10 µM (IGROV-1): < 20%; inhibition of growth at 10 µM (SNB-75): < 20%; inhibition of growth at 10 µM (HL-60(TB)): < 20%; inhibition of growth at 10 µM (SK-MEL-5): < 20%; inhibition of growth at 10 µM (SF-539): < 20%; inhibition of growth at 10 µM (A498): 23.1%; inhibition of growth at 10 µM (MDA-MB-468): < 20%; inhibition of growth at 10 µM (RPMI-8226): < 20%; inhibition of growth at 10 µM (CCRF-CEM): < 20%
O=C(CN1CCN(c2cc3c(cc2F)c(=O)c(C(=O)O)cn3C2CC2)CC1)N/N=C/c1ccc(F)cc1	19 mm	18 mm	19 mm	17 mm	–	–	–	–	–	–	–	–	–	–
O=C(CN1CCN(c2cc3c(cc2F)c(=O)c(C(=O)O)cn3C2CC2)CC1)N/N=C/c1ccc(Cl)cc1	30 mm	28 mm	30 mm	28 mm	60 µg/mL (≈ 114 µM)	62 µg/mL (≈ 118 µM)	< 20%	< 20%	< 20%	< 20%	< 20%	< 20%	< 20%	inhibition of growth at 10 µM (MCF7): < 20%; inhibition of growth at 10 µM (K562): < 20%; inhibition of growth at 10 µM (NCI-H226): < 20%; inhibition of growth at 10 µM (MDA-MB-231): < 20%; inhibition of growth at 10 µM (IGROV-1): < 20%; inhibition of growth at 10 µM (SNB-75): < 20%; inhibition of growth at 10 µM (HL-60(TB)): < 20%; inhibition of growth at 10 µM (SK-MEL-5): < 20%; inhibition of growth at 10 µM (SF-539): < 20%; inhibition of growth at 10 µM (A498): 26.7%; inhibition of growth at 10 µM (MDA-MB-468): < 20%; inhibition of growth at 10 µM (RPMI-8226): < 20%; inhibition of growth at 10 µM (CCRF-CEM): < 20%
COc1cc(/C=N/NC(=O)CN2CCN(c3cc4c(cc3F)c(=O)c(C(=O)O)cn4C3CC3)CC2)ccc1O	18 mm	16 mm	20 mm	18 mm	–	–	–	–	–	–	–	–	–	–
O=C(CN1CCN(c2cc3c(cc2F)c(=O)c(C(=O)O)cn3C2CC2)CC1)N/N=C/c1ccco1	30 mm	26 mm	31 mm	28 mm	66 µg/mL (≈ 137 µM)	70 µg/mL (≈ 145 µM)	–	–	–	–	–	–	–	–
COc1cc(/C=N/NC(=O)CN2CCN(c3cc4c(cc3F)c(=O)c(C(=O)O)cn4C3CC3)CC2)cc(OC)c1OC	23 mm	21 mm	23 mm	20 mm	–	–	–	–	–	–	–	–	–	–
O=C(CSc1nnc(CN2CCN(c3cc4c(cc3F)c(=O)c(C(=O)O)cn4C3CC3)CC2)o1)c1ccc(Cl)cc1	–	–	–	–	–	–	23%	< 20%	27.2%	< 20%	< 20%	< 20%	23.5%	inhibition of growth at 10 µM (SK-OV-3): 20.9%
NNC(=O)CN1CCN(c2cc3c(cc2F)c(=O)c(C(=O)O)cn3C2CC2)CC1	30 mm	28 mm	33 mm	28 mm	–	–	< 20%	< 20%	< 20%	< 20%	< 20%	< 20%	< 20%	inhibition of growth at 10 µM (MCF7): < 20%; inhibition of growth at 10 µM (K562): < 20%; inhibition of growth at 10 µM (NCI-H226): < 20%; inhibition of growth at 10 µM (MDA-MB-231): < 20%; inhibition of growth at 10 µM (IGROV-1): < 20%; inhibition of growth at 10 µM (SNB-75): < 20%; inhibition of growth at 10 µM (HL-60(TB)): 20.5%; inhibition of growth at 10 µM (SK-MEL-5): < 20%; inhibition of growth at 10 µM (SF-539): < 20%; inhibition of growth at 10 µM (A498): < 20%; inhibition of growth at 10 µM (MDA-MB-468): < 20%; inhibition of growth at 10 µM (RPMI-8226): < 20%; inhibition of growth at 10 µM (CCRF-CEM): < 20%
O=C(CN1CCN(c2cc3c(cc2F)c(=O)c(C(=O)O)cn3C2CC2)CC1)N/N=C/c1ccncc1	30 mm	30 mm	35 mm	28 mm	44 µg/mL (≈ 89.3 µM)	62 µg/mL (≈ 126 µM)	–	–	–	–	–	–	–	–
